The record followed here is patent publication US11331369B2, “Endoparasitic depsipeptides” (Zoetis Services LLC, priority 2017, dated 2022).

Molecules are shown by their SMILES.

The experiment relates to microfilariae of Dirofilaria immitis. Briefly: Dirofilaria immitis, Microfilaria (DiMF) In vitro Assay. The class given is cell-based. Particulars: 72 h, read-out: DiMF Minimum Effective Dose (MED), approximately 72 hours incubation, microfilariae assessed for survival or paralysis.
For the molecule `CC(C)C[C@H]1C(=O)O[C@H](Cc2ccc(Cn3cc(-c4ccccn4)cn3)cc2)C(=O)N(C)[C@@H](CC(C)C)C(=O)O[C@H](C)C(=O)N(C)[C@@H](CC(C)C)C(=O)O[C@H](Cc2ccccc2)C(=O)N(C)[C@@H](CC(C)C)C(=O)O[C@H](C)C(=O)N1C` [Example 2-47, (3S,6R,9S,12R,15S,18R,21S,24R)-6-benzyl-3,9,15,21-tetraisobutyl-4,10,12,16,22,24-hexamethyl-18-(4-((4-(pyridin-2-yl)-1H-pyrazol-1-yl)methyl)benzyl)-1,7,13,19-tetraoxa-4,10, 16,22-tetraazacyclotetracosan-2,5,8,11,14,17,20,23-octaone], the minimal effective concentration lay within 0.001 to 0.01 µM.

For the molecule `CC(C)C[C@H]1C(=O)O[C@H](Cc2ccc(CN3CCSCC3)cc2)C(=O)N(C)[C@@H](CC(C)C)C(=O)O[C@H](C)C(=O)N(C)[C@@H](CC(C)C)C(=O)O[C@H](Cc2ccc(CN3CCSCC3)cc2)C(=O)N(C)[C@@H](CC(C)C)C(=O)O[C@H](C)C(=O)N1C` [Example 9-2, (3S,6R,9S,12R,15S,18R,21S,24R)-3,9,15,21-tetraisobutyl-4,6,10,16,18,22-hexamethyl-12,24-bis(4-(thiomorpholinomethyl)benzyl)-1,7,13,19-tetraoxa-4,10,16,22-tetraazacyclotetracosan-2,5,8,11,14,17,20,23-octaone], the minimal effective concentration was 0.01 to 0.1 µM.

As for `CC(C)C[C@H]1C(=O)O[C@H](Cc2ccc(Cn3nc(C4CC4)cc3C3CC3)cc2)C(=O)N(C)[C@@H](CC(C)C)C(=O)O[C@H](C)C(=O)N(C)[C@@H](CC(C)C)C(=O)O[C@H](Cc2ccc(Cn3nc(-c4ccco4)cc3CO)cc2)C(=O)N(C)[C@@H](CC(C)C)C(=O)O[C@H](C)C(=O)N1C` [Example 1a-6, (3S,6R,9S,12R,15S,18R,21S,24R)-6-(4-((3,5-dicyclopropyl-1H-pyrazol-1-yl)methyl)benzyl)-18-(4-((3-(furan-2-yl)-5-(hydroxymethyl)-1H-pyrazol-1-yl)methyl)benzyl)-3,9,15,21-tetraisobutyl-4,10,12,16,22,24-hexamethyl-1,7,13,19-tetraoxa-4,10,16,22-tetraazacyclotetracosan-2,5,8,11,14,17,20,23-octaone], the minimal effective concentration was 0.01 to 0.1 µM.

Turning to `CC(C)C[C@H]1C(=O)O[C@H](Cc2ccc(Cn3ccc(C(C)C)n3)cc2)C(=O)N(C)[C@@H](CC(C)C)C(=O)O[C@H](C)C(=O)N(C)[C@@H](CC(C)C)C(=O)O[C@H](Cc2ccccc2)C(=O)N(C)[C@@H](CC(C)C)C(=O)O[C@H](C)C(=O)N1C` [Example 2-83, (3S,6R,9S,12R,15S,18R,21S,24R)-6-benzyl-3,9,15,21-tetraisobutyl-18-(4-((3-isopropyl-1H-pyrazol-1-yl)methyl)benzyl)-4,10,12,16,22,24-hexamethyl-1,7,13,19-tetraoxa-4,10,16,22-tetraazacyclotetracosan-2,5,8,11,14,17,20,23-octaone], the minimal effective concentration lay within 0.01 to 0.1 µM.

On to `CC(C)C[C@H]1C(=O)O[C@H](Cc2ccc(Cn3cc(S(=O)(=O)N4CCCCC4)cn3)cc2)C(=O)N(C)[C@@H](CC(C)C)C(=O)O[C@H](C)C(=O)N(C)[C@@H](CC(C)C)C(=O)O[C@H](Cc2ccccc2)C(=O)N(C)[C@@H](CC(C)C)C(=O)O[C@H](C)C(=O)N1C` [Example 2-21, (3S,6R,9S,12R,15S,18R,21S,24R)-6-benzyl-3,9,15,21-tetraisobutyl-4,10,12,16,22,24-hexamethyl-18-(4-((4-(piperidin-1-ylsulfonyl)-1H-pyrazol-1-yl)methyl)benzyl)-1,7,13,19-tetraoxa-4,10,16,22-tetraazacyclotetracosan-2,5,8,11,14,17,20,23-octaone], for which the minimal effective concentration lay in the range of 0.01 to 0.1 µM.
